Results on two molecules are retold here after patent publication US20120129884A1, “PHOTOCHEMOTHERAPEUTIC HETEROCYCLIC AGENTS HAVING ANTIPROLIFERATIVE AND ANTINEOPLASTIC ACTIVITY” (UNIVERSITA DEGLI STUDI DI PADOVA, priority 2009, published 2012).

Series [1] deals with chronic myeloid leukaemia (K-562). Description: Phototoxicity after UV-A irradiation, MTT test. The following applies: mean ± SEM. It is filed as cell-based, human. As for the experimental part: (§1) The evaluation of phototoxic activity was carried out in some human tumour cell lines: T-cell leukaemia (Jurkat), chronic myeloid leukaemia (K-562), colon adenocarcinoma (LoVo) and breast adenocarcinoma (MCF-7). Cellular survival experiments were carried out without irradiation to verify an eventual toxicity of photosensitizer in the dark, and then after two times of irradiation (10 and 15 min of UV-A, which correspond to 2.5 and 3.75 J/cm^2, respectively), using lamps which emit mainly at 365 nm. Cell survival was checked after 72 h of compound incubation or after 72 h from UVA irradiation by Mosmann's MTT reduction test (3-[4,5-dimethyltiazol-2yl] 2,5-diphenyl tetrazolium bromide), (T. Mossman, Rapid colorimetric assay for cellular growth and survival: application to proliferation and cytotoxicity assays, J. Immunol. Meths. 1983, 65, 55-63). […] In Table 2, there are GI50 values, that is the compound concentration required for 50% cell survival, for each cell line and for every time of irradiation.
For orientation: Tetrazolium assays rely on reduction of a dye to a coloured formazan, in cell work by metabolically active cells.

The test system of series [2] is breast adenocarcinoma (MCF-7). Put plainly: Phototoxicity after UV-A irradiation, MTT test. It is filed as cell-based, human. The following applies: mean ± SEM. As for the experimental part: as §1
Series [3] concerns T-cell leukaemia (Jurkat). Description: Phototoxicity after UV-A irradiation, MTT test. It is filed as cell-based, human. Particulars: mean ± SEM. As to the method: as §1
Series [4] deals with colon adenocarcinoma (LoVo). Put plainly: Phototoxicity after UV-A irradiation, MTT test. It is filed as cell-based, human. Particulars: mean ± SEM. As to the method:
as §1

The test system of series [5] is plasmid (pBR322) DNA. Description: Plasmid strand break / DNA photodamage experiments (Fpg, Endo III). It is filed as biochemical. The following applies: pBR322, irradiated, Fpg and Endo III. As for the experimental part:
After having assessed a weak affinity toward this macromolecule in the dark by such spectroscopic techniques as linear dichroism and fluorimetric titrations, some plasmid (pBR322) strand break experiments were carried out to check an eventual DNA photodamage by compounds. The formation of open circular or linear DNA from a supercoiled plasmid DNA was monitored by the separation of the three forms using agarose gel horizontal electrophoresis. Beside the formation of frank strand breaks, oxidative damages to purine and pyrimidine bases were also evaluated, incubating the irradiated mixture with the repair enzyme Fpg (Formamidopyrimidine glycosylase) and Endo III (Endonuclase III), respectively. (B. Epe, M. Pflaum, S. Boiteux, DNA damage induced by photosensitizers in cellular and cell-free systems, Mut. Res. 1993, 299, 135-145; T. A. Ciulla, J. R. Van Camp, E. Rosenfeld, I. Kochevar, Photosensitization of single-strand breaks in pBR322 DNA by Rose Bengal, Photochem. Photobiol. 1989, 49, 293-298).

In series [6] the test system is Jurkat cells. Description: Mitochondrial membrane potential by JC-1 probe after irradiation. It is filed as cell-based, human. The following applies: JC-1, 2 h from irradiation, with respect to control. As to the method:
Other two tests were performed to have more information about the mechanism of action and to evaluate which organelles were involved in this process. […] (X. Wang, The expanding role of mitochondria in apoptosis, Gen. Develop. 2001, 15, 2922-2933). An eventual mitochondrial involvement in apoptosis induction was evaluated by such a parameter of mitochondrial dysfunction as the loss of mitochondrial membrane potential. Mitochondrial membrane potential of Jurkat cells was monitored by JC-1 probe after their irradiation in the presence of 9j, 9k and 9m (S. Salvioli, A. Ardizzoni, C. Franceschi, A. Cossarizza, JC-1, but not DiOC6(3) or rhodamine 123, is a reliable fluorescent probe to assess […] changes in intact cells: implications for studies on mitochondrial functionality during apoptosis, FEBS Lett. 1997, 411, 77-82).

Series [7] relates to human tumour cell lines (Jurkat, K-562, LoVo, MCF-7). Description: Phototoxicity / dark toxicity in all tested human tumour cell lines, MTT test. Particulars: after UVA irradiation. It is filed as cell-based. As to the method: as §1
The mark [8] stands for this setting: Homo sapiens, light or radiation study, 72 h, UV-A 2.5 J/cm^2, 72 h after irradiation.
The mark [9] stands for this setting: Homo sapiens, light or radiation study, 72 h, UV-A 3.75 J/cm^2, 72 h after irradiation.
Where [10] appears, read: UV-A 2.5 J/cm^2, 72 h after irradiation.
Where [11] appears, read: UV-A 3.75 J/cm^2, 72 h after irradiation.

The term GI50 denotes the concentration that inhibits growth by half. On to `CCOC(=O)c1cc2c(n1Cc1ccccc1)-c1[nH]c(=O)c(S(=O)(=O)c3ccccc3)cc1CC2` [Compound 9k, Ethyl 1-benzyl-7-(phenylsulfonyl)-1,4,5,9-tetrahydro-8H-pyrrolo[3,2-h]quinolin-8-one-2-carboxylate], for which the GI50 in series [1] (Homo sapiens, K562, light or radiation study, 72 h, K-562, UV-A 2.5 J/cm^2, 72 h after irradiation) was found to be 900 ± 100 nM; in series [1] (Homo sapiens, K562, light or radiation study, 72 h, K-562, UV-A 3.75 J/cm^2, 72 h after irradiation), 600 ± 100 nM; in series [2] (Homo sapiens, MCF7, light or radiation study, 72 h, MCF-7, UV-A 2.5 J/cm^2, 72 h after irradiation), 900 ± 100 nM; in series [2] (Homo sapiens, MCF7, light or radiation study, 72 h, MCF-7, UV-A 3.75 J/cm^2, 72 h after irradiation), 800 ± 100 nM; in series [3] (setting [8]), 800 ± 100 nM; in series [3] (setting [9]) it was 600 ± 100 nM. The GI50 in series [4] (setting [8]) stood at 900 ± 100 nM; in series [4] (setting [9]), 800 ± 100 nM. Moreover, the “DNA photodamage (photocleavage, oxidative damages in DNA bases)” value in series [5] is “do not induce DNA photodamage”. Further, the “cell percentage with collapsed mitochondrial potential” value in series [6] is listed as “increase of cell percentage with collapsed mitochondrial potential”. For the same molecule, the “GI50 (phototoxic)” value in series [7] is reported as “submicromolar”.

As for `CCOC(=O)c1cc2c(n1Cc1ccc(OC)cc1)-c1[nH]c(=O)c(S(=O)(=O)c3ccccc3)cc1CC2` [Compound 9m, Ethyl 1-(p-methoxy-benzyl)-7-(phenylsulfonyl)-1,4,5,9-tetrahydro-8H-pyrrolo[3,24] quinolin-8-one-2-carboxylate], the GI50 in series [1] (K-562, UV-A 2.5 J/cm^2, 72 h after irradiation) turned out to be 1000 ± 100 nM; in series [1] (K-562, UV-A 3.75 J/cm^2, 72 h after irradiation) it was 900 ± 100 nM; in series [2] (MCF-7, UV-A 2.5 J/cm^2, 72 h after irradiation), 1600 ± 200 nM; in series [2] (MCF-7, UV-A 3.75 J/cm^2, 72 h after irradiation), 1400 ± 200 nM; in series [3] (setting [10]), 800 ± 100 nM; in series [3] (setting [11]), 700 ± 100 nM. The results for the GI50 in series [4] (setting [10]) and in series [4] (setting [11]) were 1100 ± 100 nM and 1000 ± 200 nM, respectively. Also, in series [5], the “DNA photodamage (photocleavage, oxidative damages in DNA bases)” value is “do not induce DNA photodamage”. For the same molecule, the “cell percentage with collapsed mitochondrial potential” value in series [6] is recorded as “increase of cell percentage with collapsed mitochondrial potential”. The “GI50 (phototoxic)” value in series [7] is given as “submicromolar”.
